Marks after values point to notes of the source that are not given here.
Experiments:
[1] = test system: Ehrlich ascites carcinoma (EAC) cells; assay: EAC cytotoxicity assay in vitro (trypan blue exclusion); type: cell-based, mouse; conditions: 2 h at 37 °C
Protocol: The cytotoxicity determination of compound (2) against EAC cells was calculated by the trypan blue exclusion method. The EAC cells were aspirated from the mouse’s peritoneal cavity by a sterile syringe and immediately transferred into a sterile falcon tube. Then, the cells were washed with sterile PBS to remove any serum or blood traces and centrifuged for 3 min, after which the supernatant was removed. After washing 2–3 times with PBS, the cell pellet was aspirated into a sterile falcon tube and every 1 mL of cell pellet was resuspended in 9 mL of sterile PBS until a concentration of […] in 0.1 mL was achieved, as determined with a hemocytometer; where 0.1 mL of cell suspension was added to 0.880 mL PBS then 20 μL of trypan blue was added. The cells’ viability was checked using a hemocytometer and found to be greater than 98%. […] Cells were visualized and counted under the microscope. For each sample at least 500 cells were counted, and the percent of dead to live cells was calculated. […] The percentage of cell viability was calculated using Equations (5) and (6):(5) % Cytotoxicity=Tdead−Cdead/Ttotal×100% % Viability = 100 − % Cytotoxicity(6) where Tdead is the number of dead cells in the treated tube, Cdead is the number of dead cells in the control tube, and Ttotal is the total number of cells (dead + live) in the treated tube.

[2] = test system: Ehrlich ascites carcinoma (EAC); assay: Serum liver and kidney function tests, EAC-bearing mice; type: in vivo; conditions: mean ± SEM
Protocol: The mice were divided into the following eight groups (10 mice in each group): • Control group: Mice were intraperitoneally injected with a vehicle (2% DMSO + sterile saline) for 12 days. • I, II, and III control groups: Healthy normal mice were intraperitoneally injected with 6, 12, and 18 mg/kg of complex (2), respectively, for 12 days. • EAC group: Mice were intraperitoneally injected by a single dose of 2.5 × 10^6 viable Ehrlich ascites carcinoma (EAC) cells in PBS. In brief, EAC cells were withdrawn from the EAC mouse’s intraperitoneal cavity, washed, and centrifuged three times with sterile saline. Then, the pellets were suspended in sterile PBS and counted by the trypan blue exclusion assay, which confirmed that the viability of the cells was 98%. • I, II, and III treated groups: Firstly, 30 healthy mice were intraperitoneally injected with a single dose of 2.5 × 10^6 viable EAC cells. After one day; the mice were divided into I, II, and III treated groups (10 mice each group), intraperitoneally injected with 6, 12, and 18 mg/kg Ru(III) complex, respectively, for 12 days.
The animals were monitored for EAC growth by measuring abdominal size. At the end of the experiment all animals were fasted overnight then sacrificed. Serum samples were collected to study the biological parameters such as liver and kidney function as well as antioxidant enzyme activity. Liver samples from each group were frozen immediately in liquid nitrogen for molecular analysis.
Liver function tests. Serum GPT and GOT activities were measured by the method of Murray with a standard kit. The enzyme activities were estimated by measuring the decrease in absorbance of NADH at 340 nm. Bilirubin concentration was estimated by the colorimetric method of Kaplan et al.. Albumin concentration was measured colorimetrically by the color change of bromocresol from yellow-green to green-blue.
Kidney function tests. Creatinine was estimated colorimetrically by reacting with alkaline picrate forming a red complex. Urea was hydrolyzed enzymatically into ammonia which reacts with several compounds to form a green complex that can be measured colorimetrically. Uric acid was estimated by the enzymatic method of Schultz.

Cyclic voltammetry = type: physicochemical; conditions: 10^−3 M in CH2Cl2/DMSO, 0.1 M (Bu4N)PF6, scan rate 50 mVs^−1
Protocol: Elemental analyses (C, H, N) were performed by the Microanalysis unit in the Department of Chemistry at Simon Fraser University. Infrared spectra (FTIR) were performed on a JASCO 4100 FTIR spectrophotometer in the 4000–400 cm^−1 range using a KBr disc. NMR (^1H and ^13C) spectra were recorded in DMSO-d6 solvent using a Bruker 400 MHz instrument. The 2D NMR analysis (^1H–^1H COSY) was performed on a Jeol 500 MHz NMR, at Mansoura University. ESI/APCI HRMS data were acquired on a Thermo Scientific Exactive Plus Orbitrap mass spectrometer. Electronic spectra (in DMSO, 200–900 nm) were measured on a JASCO 630 V spectrophotometer. Emission spectra of the complexes were measured on a Jenway model 6285 spectrofluorimeter for excitation and emission spectra, 200–700 nm. The magnetic susceptibility of the complexes was measured on a Johnson Matthey magnetic susceptibility balance. […] A microplate reader (StatFax-2100, Awareness Technology, Inc., Palm City, FA, USA), Attune flow cytometer (Applied Biosystems, Foster City, CA, USA), Quawell nanodrop Q5000 (San Jose, CA, USA), StepOnePlus real time PCR system (Applied Biosystems, Foster City, CA, USA), and CO2 incubator (NuAire In-Vitro Cell, Plymouth, MN, USA) were used in biological studies.

MCF7 cells = assay: DNA fragmentation (agarose gel), MCF7; type: cell-based, human; conditions: MCF7, 117.6 µg/mL, 4 h
Protocol: MCF7 and Caco2 cells were collected and genomic DNA was extracted using a Gene JET genomic DNA extraction kit following the manufacturer’s protocol (Thermo Scientific, #K0721). The extracted DNA samples were run on a 1.5% agarose gel at 50 V for 2 h and the fragment pattern was visualized by ethidium bromide staining under a UV transilluminator.

[3] = II treated 12 mg/kg i.p. 12 days
[4] = III treated 18 mg/kg i.p. 12 days

Structure (SMILES): CS(C)=O.Nc1ccccc1-c1nc2ccccc2[nH]1.O.[Cl][Ru]([Cl])[Cl] [(2), [Ru(III)Cl3(DMSO)(Hapbim)]·H2O]
- IC50 against EAC cells [1]: 70 ± 1 µg/mL
- Albumin ([2]; I treated 6 mg/kg i.p. 12 days): 0.9 ± 0.03 g/dL
- Bilirubin ([2]; I treated 6 mg/kg i.p. 12 days): 0.18 ± 0.03 mg/dL
- Creatinine ([2]; I treated 6 mg/kg i.p. 12 days): 0.7 ± 0.01 mg/dL
- GOT ([2]; I treated 6 mg/kg i.p. 12 days): 248 ± 15.6 ^a U/L
- GPT ([2]; I treated 6 mg/kg i.p. 12 days): 15.2 ± 0.7 U/L
- Urea ([2]; I treated 6 mg/kg i.p. 12 days): 34.5 ± 0.4 mg/dL
- Uric Acid ([2]; I treated 6 mg/kg i.p. 12 days): 2.6 ± 0.1 mg/dL
- Albumin [2, 3]: 2.7 ± 0.3 g/dL
- Bilirubin [2, 3]: 0.2 ± 0.03 mg/dL
- Creatinine [2, 3]: 0.7 ± 0.1 mg/dL
- GOT [2, 3]: 179 ± 10.8 U/L
- GPT [2, 3]: 17.8 ± 0.6 U/L
- Urea [2, 3]: 34.2 ± 0.6 mg/dL
- Uric Acid [2, 3]: 2.7 ± 0.1 mg/dL
- Albumin [2, 4]: 2.6 ± 0.1 g/dL
- Bilirubin [2, 4]: 0.18 ± 0.02 mg/dL
- Creatinine [2, 4]: 1 ± 0.1 ^a mg/dL
- GOT [2, 4]: 145 ± 39.3 U/L
- GPT [2, 4]: 31.9 ± 7.8 U/L
- Urea [2, 4]: 33.3 ± 1.2 mg/dL
- Uric Acid [2, 4]: 2.8 ± 0.1 mg/dL
- E1/2 (Ru(II)/Ru(III) redox couple) (Cyclic voltammetry): −295 mV
- DNA fragmentation (MCF7 cells): distinct DNA laddering

Source: article PMC7570852, “Ruthenium(II)/(III) DMSO-Based Complexes of 2-Aminophenyl Benzimidazole with In Vitro and In Vivo Anticancer Activity” (Molecules, 2020)
